Source: patent US9468225B2, “Oral compositions” (Symrise AG, priority 2013, dated 2016)

Tests used:
[1] = system: human neuroblastoma cells (SH-SY5Y); experiment: Serotonin release by SH-SY5Y cells after 3-minute stimulation with alkamides (Serotonin-ELISA, normalized to DNA); assay type: cell-based; details: for Serotonin release T/C [%]: relative to EtOH control, 3 min stimulation
Procedure: (§1) The cell model used for the release of the neurotransmitters dopamine and serotonin are human neuroblastoma cells (SH-SY5Y, ATCC Number CRL-2266). Cultivation is performed at 37° C. and with a 5% CO2 content using a mixture containing at equal parts Eagle's Minimum Essential Medium (MEM) and F12 Medium (each having 10% FBS and 1% Penicillin/Streptomycin). To measure the release of dopamine and serotonin, the cells are harvested with trypsin and seeded, after a vitality check using trypan blue tests, in a defined cell number in 35 mm cell culture dishes.
After a 3-minute stimulation of 1.25*10^6 human neuroblastoma cells (SH-SY5Y) with 300 μL Krebs-Ringer-HEPES buffer, 0.1% ascorbic acid, pH 6.2, with, or without, the addition of an alkamide (trans-Pellitorine, dihydropellitorine, spilanthol, wherein when adding the alkamide in concentrations of 0.001 μM, 0.1 μM 1 μM and 10 μM within the Krebs-Ringer-HEPES buffer is adjusted), the serotonin content is detected by means of an enzyme-based method of detection (Serotonin-ELISA sensitive, DLD Diagnostica, Hamburg, Germany). The cells are lysed with a buffer containing sodium lauryl sarcosinate and the DNA content is detected by means of a NanoQuant plate (Tecan, Ménnendorf, Switzerland) to normalize serotonin release.
FIGS. 1a and 1b represent the release of serotonin after incubation with t-pellitorine (2) (FIG. 1A) in concentrations of 0.001 μM, 0.1 μM, 1 μM and 10 μM or other alkamides (FIG. 1B: 1=t-pellitorine, 2=dihydropellitorine, 3=spilanthol)). Results are represented in % relative to control (buffer with 0.1% ethanol) n=3, tR=2. Significant differences of control treatment were tested using a one-way ANOVA with a subsequent Holm-Sidak post hoc test and marked according to the following pattern: *p≦0.05; **p.≦0.01; ***p≦0.001.

3T3-L1 cells [2] = experiment: Long time lipid accumulation (Oil-Red O) in 3T3-L1 adipocytes; assay type: cell-based, murine; details: 10 days treatment, vs ethanol control
Procedure: The cell model used for short-term uptake of free fatty acids and long-term lipid accumulation in the adipocytes are murine fibroblasts (3T3-L1, ATTC Number CL-173) after the cells differentiated to form adipocytes. 3T3-L1 fibroblasts are cultivated at 37° C. and a 5% CO2 content with Dulbecco's Modified Eagle Medium (DMEM) having 10% FBS, 4% L-Glutamin and 1% Penicillin/Streptomycin (=basal medium). Adipocyte differentiation occurs two days after reaching confluence by adding 10 μg/L Insulin, 1 μM dexamethasone and 0.5 mM Isobutylmethylxanthin into the culture medium (=differentiation medium). After two days of cultivation in differentiation medium the adipocytes are allowed to mature for two further days by adding 10 μg/L insulin into the culture medium (=maturation medium). After having spent between three and five days in basal medium, the adipocytes are optimally differentiated and show by inclusion of lipid droplets the phenotype that is typical for adipocytes. Human colon cell line CaCo-2 (ATCC Number HTB-37) is used as a cell model for the uptake of free fatty acids by the small intestine after they have differentiated to form a phenotype corresponding to enterocytes. CaCo-2 cells are cultivated at 37° C. with a 5% CO2 content with Dulbecco's Modified Eagle Medium (DMEM) with 10% FBS, 2% L-glutamin and 1% penicillin/streptomycin. Enterocyte differentiation is performed by cultivating the cells in a period of 18 days after they reach confluence. After differentiation of the 3T3-L1 fibroblasts to form adipocytes the cells are treated for 10 days with trans-pellitorine in concentrations of 0.001 μM, μM 0.1 μM, 1 μM and 10 μM and a final concentration of 10 μg/L insulin. […] The dye Oil-Red 0 is subsequently removed by means of 100% isopropanol, and absorption of the Oil-Red 0 solution, which behaves proportionally to the lipid droplets of the cells, was determined by means of a microplate reading device (Tecan, Ménnendorf, Switzerland). […]

[3] = system: human neuroblastoma cells (SH-SY5Y); experiment: Dopamine release by SH-SY5Y cells after 3-minute stimulation with trans-pellitorine (Dopamin-ELISA, normalized to DNA); assay type: cell-based; details: for Dopamine release T/C [%]: relative to EtOH control, 3 min stimulation
Procedure: as §1
After a 3-minute stimulation of 1.25*10^6 of human neuroblastoma cells (SH-SY5Y) with 350 μL Krebs-Ringer-HEPES Puffer (1), pH 5, with or without the addition of trans-pellitorine (2) in concentrations of 0.001 μM, 0.1 μM, 1 μM and 10 μM the supernatant is acidified with 1 N HCl and the dopamine content is determined by means of an enzyme-based method of detection (Dopamin-ELISA, DLD Diagnostica, Hamburg, Germany). The cells are lysed with a buffer containing sodium lauryl sarcosinate and the DNAN content is determined by means of a NanoQuant plant (Tecan, Ménnendorf, Switzerland) for normalization of dopamine release. During an ethanol control (EtOH control) no trans-pellitorine is added to the Krebs-Ringer-HEPES buffer, but ethanol is added to the buffer such that a 0.1% ethanolic Krebs-Ringer-HEPES buffer solution is obtained.
FIG. 2 represents the release of dopamin after incubation with t-pellitorine (2) in concentrations of 0.001 μM, 0.1 μM, 1 μM and 10 μM. The results are represented in a […] expressed in percent (buffer with 0.1% ethanol). n=3, tR=2. Significant differences between the treatments and control were tested using a one-way ANOVA with a subsequent Holm-Sidak post hoc test and marked according to the following pattern: *p≦0.05; **p.≦0.01; ***p≦0.001.

3T3-L1 cells [4] = experiment: Fatty acid uptake (BODIPY fatty acid) in 3T3-L1 adipocytes; assay type: cell-based, murine; details: for Fatty acid uptake T/C [%]: 30 min preincubation, area below the curve over 60 min vs ethanol control
Procedure: (§2) The cell model used for short-term uptake of free fatty acids and long-term lipid accumulation in the adipocytes are murine fibroblasts (3T3-L1, ATTC Number CL-173) after the cells differentiated to form adipocytes. 3T3-L1 fibroblasts are cultivated at 37° C. and a 5% CO2 content with Dulbecco's Modified Eagle Medium (DMEM) having 10% FBS, 4% L-Glutamin and 1% Penicillin/Streptomycin (=basal medium). Adipocyte differentiation occurs two days after reaching confluence by adding 10 μg/L Insulin, 1 μM dexamethasone and 0.5 mM Isobutylmethylxanthin into the culture medium (=differentiation medium). After two days of cultivation in differentiation medium the adipocytes are allowed to mature for two further days by adding 10 μg/L insulin into the culture medium (=maturation medium). After having spent between three and five days in basal medium, the adipocytes are optimally differentiated and show by inclusion of lipid droplets the phenotype that is typical for adipocytes. Human colon cell line CaCo-2 (ATCC Number HTB-37) is used as a cell model for the uptake of free fatty acids by the small intestine after they have differentiated to form a phenotype corresponding to enterocytes. CaCo-2 cells are cultivated at 37° C. with a 5% CO2 content with Dulbecco's Modified Eagle Medium (DMEM) with 10% FBS, 2% L-glutamin and 1% penicillin/streptomycin. Enterocyte differentiation is performed by cultivating the cells in a period of 18 days after they reach confluence.
After differentiation of 3T3-L1 fibroblasts to form adipocytes, 65000 cells per well are seeded in a 96 well plate and incubated at 37° C. for four hours with basal medium (DMEM+10% fetal bovine serum) and then incubated for an hour with serum-free medium. The cells were pre-treated with 0.1 μM, 1 μM and 10 μM t-pellitorine for 30 minutes. The uptake of free fatty acids into the cells was measured by means of the fluorescence-marked fatty acid BODIPY® (QBT Fatty Acid Uptake Corporation, Germany) with a fluorescence microplate reading device (Tecan, Ménnendorf, Switzerland) every 20 seconds for a period of 60 minutes.
The results are represented as an area below the curve after measuring of 60 minutes in comparison with control (1, buffer with 0.1% Ethanol). n=3, tR=2-3. Significant differences between the treatment and control were tested by means of an one-way ANOVA followed by a Holm-Sidak post hoc test and marked according to the following pattern: *p≦0.05; **p.≦0.01; ***p≦0.001

[5] = system: differentiated CaCo-2 cells; experiment: Fatty acid uptake (BODIPY fatty acid) in differentiated CaCo-2 cells; assay type: cell-based, human; details: for Fatty acid uptake T/C [%]: 30 min preincubation, area below the curve over 60 min vs ethanol control
Procedure: as §2, with “confluence. After differentiation of the CaCo-2 cells to form an enterocyte phenotype, the cells are incubated with serum-free medium for an hour. Subsequently the cells are pre-treated with 0.1 μM, 1 μM and 10 μM t-pellitorine for 30 minutes and the free fatty acid uptake into the cells was measured by means of the fluorescence marked fatty acid BODIPY® (QBT Fatty Acid Up-take Corporation, Germany) at a fluorescence microplate reading device (Tecan, Ménnendorf, Switzerland) every 20 seconds for a period of 60 minutes. […] The results are represented as an area below the curve after measuring for 60 minutes in comparison to control (1, buffer with 0.1% ethanol). n=3, tR=2-3. Significant differences between the treatment and control were tested by means of a one-way ANOVA followed by a Holm-Sidak post hoc test and marked according to the following pattern: *p≦0.05; **p.≦0.01; ***p≦0.001” for “confluence.”

CCCCCCC/C=C/C(=O)NCC(C)C [Dihydropellitorine, 2E-decenoic acid-N-isobutylamide]
Serotonin release T/C [%] ([1]; 0.001 μM): 140.9%
Serotonin release T/C [%] ([1]; 0.1 μM): 87.41%
Serotonin release T/C [%] ([1]; 1 μM): 124.3%
Serotonin release T/C [%] ([1]; 10 μM): 144.5%

C/C=C/C=C\CC/C=C/C(=O)NCC(C)C [Spilanthol, 2E,6Z,8E-decatrienoic acid N-isobutylamide]
Serotonin release T/C [%] ([1]; 0.001 μM): 105.6%
Serotonin release T/C [%] ([1]; 0.1 μM): 129.9%
Serotonin release T/C [%] ([1]; 1 μM): 103.8%
Serotonin release T/C [%] ([1]; 10 μM): 91.77%

CCCCC/C=C/C=C/C(=O)NCC(C)C [trans-pellitorine, 2E,4E-decadienic acid-N-isobutylamide]
Lipid accumulation T/C [%] (3T3-L1 cells [2]; 0.001 μM): 94.60%
Lipid accumulation T/C [%] (3T3-L1 cells [2]; 0.1 μM): 92.94%
Lipid accumulation T/C [%] (3T3-L1 cells [2]; 1 μM): 93.46%
Serotonin release T/C [%] ([1]; 0.001 μM): 105.3%
Serotonin release T/C [%] ([1]; 0.1 μM): 140.2%
increase of the release of serotonin ([1]; 100 nM, SH-SY5Y cells): 40%
Serotonin release T/C [%] ([1]; 1 μM): 128.8%
Serotonin release T/C [%] ([1]; 10 μM): 93.02%
Dopamine release T/C [%] ([3]; 0.001 μM): 99.68%
Dopamine release T/C [%] ([3]; 0.1 μM): 182.7%
increase of dopamine release ([3]; 100 nM, SH-SY5Y cells): 80%
Dopamine release T/C [%] ([3]; 1 μM): 106.8%
Dopamine release T/C [%] ([3]; 10 μM): 127.3%
Fatty acid uptake T/C [%] (3T3-L1 cells [4]; 0.1 μM): 93.84%
Fatty acid uptake T/C [%] (3T3-L1 cells [4]; 1 μM): 96.63%
Fatty acid uptake T/C [%] (3T3-L1 cells [4]; 10 μM): 91.95%
reduction of fatty acid uptake in adipocytes (3T3-L1 cells [4]; preincubation with 10 μM): 9%
Fatty acid uptake T/C [%] ([5]; 0.1 μM): 107.8%
Fatty acid uptake T/C [%] ([5]; 1 μM): 98.7%
Fatty acid uptake T/C [%] ([5]; 10 μM): 97.8%
Fatty acid uptake T/C [%] ([5]; 100 μM): 86.0%
reduction of free fatty acid uptake in an enterocyte model ([5]; preincubation with 100 μM, 30 minutes): 14%
